Test results reported in patent US4239752A, “O-Demethylseldomycin factor 5 derivatives” (Abbott Laboratories, priority 1979, dated 1980).
In brackets after ≈: the same amount, converted by molar mass.

How the values were obtained:
[1] = tested on: Gram-positive and Gram-negative organisms; settings: Staphylococcus aureus, Klebsiella pneumoniae, Escherchia coli and Proteus species; cited from earlier work
[2] = tested on: Pseudomonas aeruginosa KY-8512; test: in vitro antibiotic activity, two fold dilution test (MIC); format: cell-based; settings: KY8512, Streptomycin Assay Agar with yeast extract, pH 7.9, inoculum approx. 1×10^5
Experimental: (§1) The in vitro antibiotic activity is determined by a two fold dilution test using Streptomycin Assay Agar with yeast extract (at pH 7.9). The inoculum of approximately 1×10^5 of the indicated test organism is delivered by a multiple inoculator. The minimum inhibitory concentrations for a representative compound, O-demethyl-3'-deoxyseldomycin factor 5 is set forth in Table II. The minimum inhibitory concentrations are expressed in micrograms per milliliter.

[3] = tested on: Klebsiella pneumoniae ATCC 10031; test: as above; format: cell-based; settings: ATCC10031, Streptomycin Assay Agar with yeast extract, pH 7.9, inoculum approx. 1×10^5
Experimental: as §1

[4] = tested on: Escherichia coli R19; test: as above; format: cell-based; settings: Streptomycin Assay Agar with yeast extract, pH 7.9, inoculum approx. 1×10^5
Experimental: as §1

[5] = tested on: Escherichia coli R16; test: as above; format: cell-based; settings: Streptomycin Assay Agar with yeast extract, pH 7.9, inoculum approx. 1×10^5
Experimental: as §1

[6] = tested on: Escherichia coli R5; test: as above; format: cell-based; settings: Streptomycin Assay Agar with yeast extract, pH 7.9, inoculum approx. 1×10^5
Experimental: as §1

[7] = tested on: Bacillus subtilis U. of Ill. 10707; test: as above; format: cell-based; settings: Streptomycin Assay Agar with yeast extract, pH 7.9, inoculum approx. 1×10^5
Experimental: as §1

[8] = tested on: Pseudomonas aeruginosa PST; test: as above; format: cell-based; settings: Streptomycin Assay Agar with yeast extract, pH 7.9, inoculum approx. 1×10^5
Experimental: as §1

[9] = tested on: Staphylococcus aureus ATCC 6538P; test: as above; format: cell-based; settings: ATCC6538P, Streptomycin Assay Agar with yeast extract, pH 7.9, inoculum approx. 1×10^5
Experimental: as §1

[10] = tested on: Proteus stuartii ATCC 25825; test: as above; format: cell-based; settings: Streptomycin Assay Agar with yeast extract, pH 7.9, inoculum approx. 1×10^5
Experimental: as §1

[11] = tested on: Escherichia coli NR 79; test: as above; format: cell-based; settings: NR79, Streptomycin Assay Agar with yeast extract, pH 7.9, inoculum approx. 1×10^5
Experimental: as §1

[12] = tested on: Pseudomonas aeruginosa BMH#1; test: as above; format: cell-based; settings: Streptomycin Assay Agar with yeast extract, pH 7.9, inoculum approx. 1×10^5
Experimental: as §1

[13] = tested on: Proteus vulgaris ATCC 6897; test: as above; format: cell-based; settings: ATCC6897, Streptomycin Assay Agar with yeast extract, pH 7.9, inoculum approx. 1×10^5
Experimental: as §1

[14] = tested on: Eschericha coli ATCC 26; test: as above; format: cell-based; settings: Streptomycin Assay Agar with yeast extract, pH 7.9, inoculum approx. 1×10^5
Experimental: as §1

[15] = tested on: Escherichia coli 76-2; test: as above; format: cell-based; settings: 762, Streptomycin Assay Agar with yeast extract, pH 7.9, inoculum approx. 1×10^5
Experimental: as §1

[16] = tested on: Escherichia coli R3; test: as above; format: cell-based; settings: Streptomycin Assay Agar with yeast extract, pH 7.9, inoculum approx. 1×10^5
Experimental: as §1

MIC [2] | MIC [3] | MIC [4] | MIC [5] | MIC [6] | MIC [7] | MIC [8] | MIC [9] | MIC [10] | MIC [11] | MIC [12] | MIC [13] | MIC [14] | MIC [15] | MIC [16] | Compound | antibiotic activity [1]
– | – | – | – | – | – | – | – | – | – | – | – | – | – | – | COC1COC(O[C@@H]2[C@@H](O)[C@H](O[C@H]3O[C@H](CN)C[C@H](O)[C@H]3N)[C@@H](N)C[C@H]2N)C(N)C1N (stereo partly shown) [Seldomycin factor 5] | highly active, broad-spectrum antibiotic effective against both Gram-positive and Gram-negative organisms
1.25 µg/mL (≈ 2.97 µM) | 0.04 µg/mL (≈ 0.0951 µM) | 0.16 µg/mL (≈ 0.38 µM) | 0.4 µg/mL (≈ 0.951 µM) | 0.8 µg/mL (≈ 1.9 µM) | 0.01 µg/mL (≈ 0.0238 µM) | 720 µg/mL (≈ 1710 µM) | 0.02 µg/mL (≈ 0.0476 µM) | 2.5 µg/mL (≈ 5.95 µM) | 0.16 µg/mL (≈ 0.38 µM) | 0.63 µg/mL (≈ 1.5 µM) | 0.31 µg/mL (≈ 0.737 µM) | 0.16 µg/mL (≈ 0.38 µM) | 0.16 µg/mL (≈ 0.38 µM) | 2.5 µg/mL (≈ 5.95 µM) | NC[C@@H]1CC[C@@H](N)[C@@H](O[C@H]2[C@H](O)[C@@H](OC3OCC(O)C(N)C3N)[C@H](N)C[C@@H]2N)O1 (stereo partly shown) [O-demethyl-3'-deoxyseldomycin factor 5, O-Demethyl-3'-deoxyseldomycin factor 5] | –
